# Source: patent US20230212180A1, “SUBSTITUTED PYRAZINE COMPOUND, PHARMACEUTICAL COMPOSITION COMPRISING SAME, AND USE THEREOF” (Sichuan Kelun-Biotech Biopharmaceutical Co., Ltd., priority 2020, published 2023)
# Like-named read-outs stand apart in the source and are kept apart here.
# Legend:
# [1] = system: KYSE-520 cell (human esophageal squamous cell carcinoma cell); assay: Inhibition of the proliferation activity of KYSE-520 cell (CellTiter-Glo); assay type: cell-based; conditions: 120 h, KYSE-520 cell proliferation, 5 days
# Procedure, shortened: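 KYSE-520 cells, 1500/well, adhered overnight, then exposed to compound in complete medium with 10% FBS for 5 days at 37° C, 5% CO2. Viability by CellTiter-Glo luminescence, blank-corrected against cell-free medium and normalised to vehicle. IC50 from four-parameter logistic fit.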
# CYP3A4 = biological target: T1, CYP3A4 (Homo sapiens, UniProt P08684); assay: Biochemical assay for CYP enzyme inhibition, P450-Glo CYP3A4 Screening System; assay type: in vitro ADME
# T1 construct: purchased Promega
# Description: Test Example 5: Biochemical Assay for CYP Enzyme (Cytochrome P450) Inhibition
# P450-Glo™ CYP3A4 Screening System, (Promega).
# BMG PHERAstar FS Luminescent.
# The experiments were carried out separately according to the instructions of the kits. The steps were as follows:
# 3.3. Inhibition Against CYP3A4:
# Test group: The test compounds at different concentrations were added into a microplate, and Luciferin-IPA ([…]), K3PO4 (100 mM), and CYP3A4 (2 nM) were added into each well, and pre-incubated at room temperature for 10 min. Thereafter, an NADPH regeneration system was added. The mixture was reacted at room temperature for 30 min. Finally, an equal volume of detection buffer was added and incubated at room temperature for 20 min, followed by chemiluminescence detection.
# Negative control group: The experimental method for the negative control group was the same as that for the test group, except that the test compound was not added.
# Blank control group: The experimental method for the blank control group was the same as that for the test group, except that the test compound was not added and that CYP3A4 was replaced with CYP3A4 Membrance (2 nM).
# Percentage inhibition=(1−(the chemiluminescent signal value of the test compound group at a certain test concentration−the chemiluminescent signal value of the blank control group)/(the chemiluminescent signal value of the negative control group−the chemiluminescent signal value of the blank control group))×100%.
# When the percentage inhibition was between 30% and 80%, a single value or a value range of the half maximal inhibitory concentration (IC50) of the compound against the CYP enzyme was estimated based on the following equation: IC50=X×(1−percentage inhibition)/percentage inhibition, wherein X was the test concentration of the compound.
# [2] = biological target: T2, recombinant full-length human PTPN11 (SHP2) (Homo sapiens, UniProt Q06124); assay: Inhibition of in vitro enzyme activity of SHP2 (DiFMUP fluorescence endpoint assay); assay type: biochemical; conditions: SHP2 0.5 nM, DiFMUP 200 μM, IRS-1 0.5 μM; 60 min incubation
# T2 construct: recombinant full-length human PTPN11 (SHP2), active (SignalChem); purchased SignalChem
# T2 sequence (Q06124 1-593): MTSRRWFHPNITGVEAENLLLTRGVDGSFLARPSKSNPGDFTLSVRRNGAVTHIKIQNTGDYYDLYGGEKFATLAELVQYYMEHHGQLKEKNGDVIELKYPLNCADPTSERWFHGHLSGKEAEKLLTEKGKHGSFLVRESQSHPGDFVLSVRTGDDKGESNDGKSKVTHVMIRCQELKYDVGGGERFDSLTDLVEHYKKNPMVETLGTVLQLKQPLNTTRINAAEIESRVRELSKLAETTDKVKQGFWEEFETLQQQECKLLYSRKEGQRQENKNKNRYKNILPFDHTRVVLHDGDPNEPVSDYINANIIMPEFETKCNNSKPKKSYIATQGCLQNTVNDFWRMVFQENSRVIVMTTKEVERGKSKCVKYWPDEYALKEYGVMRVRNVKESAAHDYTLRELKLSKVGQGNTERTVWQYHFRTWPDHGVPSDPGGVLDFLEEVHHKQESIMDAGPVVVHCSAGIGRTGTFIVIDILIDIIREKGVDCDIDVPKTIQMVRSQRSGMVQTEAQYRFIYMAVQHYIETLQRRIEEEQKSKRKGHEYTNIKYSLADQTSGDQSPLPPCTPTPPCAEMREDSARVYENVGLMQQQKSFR
# Procedure, shortened: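 Full-length human SHP2 (0.5 nM) with 0.5 μM IRS1 bis-phosphopeptide preincubated with compound 60 min at room temperature, pH 7.2 HEPES with 5 mM DTT. DiFMUP (200 μM) reacted 30 min, stopped with bpv, fluorescence ex 340/em 450 nm. IC50 by four-parameter logistic fit.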
# [3] = estimated from percentage inhibition, read-out: IC50 (μM) CYP3A4
# T1 sequence (P08684 whole entry): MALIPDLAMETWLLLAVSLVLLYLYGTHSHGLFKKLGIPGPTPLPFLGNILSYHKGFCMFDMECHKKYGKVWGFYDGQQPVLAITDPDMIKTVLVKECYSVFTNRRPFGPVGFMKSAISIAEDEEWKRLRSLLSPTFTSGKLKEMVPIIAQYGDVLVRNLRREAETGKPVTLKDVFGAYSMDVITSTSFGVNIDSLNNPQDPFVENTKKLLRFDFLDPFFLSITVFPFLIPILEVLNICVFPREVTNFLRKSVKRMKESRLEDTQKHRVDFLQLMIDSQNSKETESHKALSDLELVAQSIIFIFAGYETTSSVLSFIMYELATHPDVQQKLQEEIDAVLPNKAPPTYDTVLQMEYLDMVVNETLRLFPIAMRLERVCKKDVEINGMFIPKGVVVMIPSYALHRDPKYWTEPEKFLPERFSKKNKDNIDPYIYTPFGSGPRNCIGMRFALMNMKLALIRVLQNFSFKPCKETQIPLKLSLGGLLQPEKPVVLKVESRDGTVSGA
Structure (SMILES),IC50 [1] [nM],IC50 (CYP3A4; [3]) [µM],IC50 [2] [nM],IC50 (CYP3A4) [µM]
"CC(C)(O)C1CN(c2nccc(Sc3cnc(N4CCC5(CC4)Cc4ccccc4[C@H]5N)c(CO)n3)c2Cl)C1 [Example 23, (S)-2-(1-(4-(5-(1-amino-1,3-dihydrospiro[indene-2,4′-piperidin]-1′-yl)-6-(hydroxymethyl)pyrazin-2-ylthio)-3-chloropyridin-2-yl)azetidin-3-yl)propan-2-ol]",140,> 10,1.9,
"C[C@@H]1OCC2(CCN(c3ncc(Sc4ccnc(N5CC(CS(C)(=O)=O)C5)c4Cl)nc3CO)CC2)[C@@H]1N [Example 26, (3-((3S,4S)-4-amino-3-methyl-2-oxa-8-azaspiro[4.5]decan-8-yl)-6-(3-chloro-2-(3-(methylsulfonylmethyl)azetidin-1-yl)pyridin-4-ylthio)pyrazin-2-yl)methanol]",30,,0.7,> 10
"C[C@@H]1OCC2(CCN(c3ncc(Sc4ccnc(N5CC(C)(CO)C5)c4Cl)nc3CO)CC2)[C@@H]1N [Example 27, (3-((3S,4S)-4-amino-3-methyl-2-oxa-8-azaspiro[4.5]decan-8-yl)-6-(3-chloro-2-(3-(hydroxymethyl)-3-methylazetidin-1-yl)pyridin-4-ylthio)pyrazin-2-yl)methanol]",60,,4.1,> 10
"C[C@@H]1OCC2(CCN(c3ncc(Sc4ccnc(N5CC(C)(CS(C)(=O)=O)C5)c4Cl)nc3CO)CC2)[C@@H]1N [Example 29, (3-((3S,4S)-4-amino-3-methyl-2-oxa-8-azaspiro[4.5]decan-8-yl)-6-(3-chloro-2-(3-methyl-3-(methylsulfonylmethyl)azetidin-1-yl)pyridin-4-ylthio)pyrazin-2-yl)methanol]",40,,1.68,> 10
"C[C@@H]1OCC2(CCN(c3ncc(Sc4ccnc(N5CC(CO)(CF)C5)c4Cl)nc3CO)CC2)[C@@H]1N [Example 42, (3-((3S,4S)-4-amino-3-methyl-2-oxa-8-azaspiro[4.5]decan-8-yl)-6-(3-chloro-2-(3-(fluoromethyl)-3-(hydroxymethyl)azetidin-1-yl)pyridin-4-ylthio)pyrazin-2-yl)methanol]",100,> 10,10.2,
"CC(C)(O)C1CN(c2nccc(Sc3cnc(N4CCC5(CC4)Cc4ncccc4[C@H]5N)c(CO)n3)c2Cl)C1 [Example 43, (S)-2-(1-(4-(5-(5-amino-5,7-dihydrospiro[cyclopenta[b]pyridine-6,4′-piperidin]-1′-yl)-6-(hydroxymethyl)pyrazin-2-ylthio)-3-chloropyridin-2-yl)azetidin-3-yl)propan-2-ol]",40,> 10,2.6,
"CC(C)(O)C1CN(c2nccc(Sc3ncc(N4CCC5(CC4)Cc4ncccc4[C@H]5N)nc3N)c2Cl)C1 [Example 46, (S)-2-(1-(4-(3-amino-5-(5-amino-5,7-dihydrospiro[cyclopenta[b]pyridine-6,4′-piperidin]-1′-yl)pyrazin-2-ylthio)-3-chloropyridin-2-yl)azetidin-3-yl)propan-2-ol]",70,> 10,2.6,
"C[C@@H]1OCC2(CCN(c3ncc(Sc4ccnc(N5CC(C#N)(CO)C5)c4Cl)nc3CO)CC2)[C@@H]1N [Example 47, 1-(4-(5-((3S,4S)-4-amino-3-methyl-2-oxa-8-azaspiro[4.5]decan-8-yl)-6-(hydroxymethyl)pyrazin-2-ylthio)-3-chloropyridin-2-yl)-3-(hydroxymethyl)azetidine-3-carbonitrile]",40,,3.2,> 10
